Test [1] has as its system MM1 S (B lymphoblast cell line). As to the kind of experiment: 48 hr CTG viability assay, MM1S. Format: cell-based. Conditions: Homo sapiens, 48 hr CTG, read-out: MM1S IC50. The gist of the method: (§1)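 Growth inhibition by compound over 48 h; IC50 (nM) derived from duplicate CellTiter-Glo luminescence readings across 0.0015–10 uM.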
Test [2] has as its target T1, β5 subunit of the human constitutive proteasome (CPS) (Homo sapiens, UniProt P28074).
T1 construct: purchased Boston Biochem E-360
Briefly: β5 inhibition assay, human constitutive proteasome (Suc-LLVY-AMC). Format: biochemical. The conditions noted are these: IC50 class, Suc-LLVY-AMC substrate. As to the method: The enzymatic activity of the β5 subunit of the human constitutive proteasome (CPS) is analyzed. In another assay, which differs from the assay of the human constitutive proteasome only in using the human immunoproteasome (IPS) the enzymatic activity of the β5 subunit of the human immunoproteasome (IPS) is analyzed. […] Inhibition is indicated as IC50 [nM] (“-”=not measured).

The test system of test [3] is Hs 746T (human gastric carcinoma cell line). Briefly: 48 hr CTG viability assay, Hs 746T. Conditions: Hs746T, 48 hr CTG, read-out: Hs 746T IC50. Format: cell-based. The procedure, abridged:
as §1

Test [4] deals with A549 (human lung carcinoma cell line). Briefly: Glo assay of A549 cells (Table 3; ProteasomeGlo plating scheme). Format: cell-based. The conditions noted are these: Homo sapiens; A549 cells; read-out: PGLo A549. The gist of the method:
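Compound treatment lasts 105 minutes at 37° C. under 5% CO2. Suc-LLVY-Glo substrate premixed with detection reagent (60 min at room temperature) is then added directly to the cells, and luminescence after 10-15 min in the dark gives the IC50 in nM.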

Test [5] has as its system RPMI 8226 (B lymphocyte cell line, multiple myeloma). As to the kind of experiment: 48 hr CTG viability assay, RPMI 8226. The test is classed as cell-based. The conditions noted are these: Homo sapiens, RPMI-8226; 48 hr CTG; read-out: RPMI-8226 IC50. The gist of the method:
as §1

Test [6] deals with T2, β5 subunit of the human immunoproteasome (IPS) (Homo sapiens, UniProt P28062).
T2 construct: purchased Boston Biochem E-370
As to the kind of experiment: β5 inhibition assay, human immunoproteasome (Suc-LLVY-AMC). Format: biochemical. The conditions noted are these: IC50 class, Suc-LLVY-AMC substrate. The gist of the method: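 Human immunoproteasome (1 nM final) was preincubated 10 min at RT with compound in 100 mM HEPES pH 7.5, 50 mM NaCl, 0.02% SDS, 1 mM DTT. Suc-LLVY-AMC (22.6 μM final) was then added for 4 h at RT in the dark. After stopping with 1 μM bortezomib, AMC fluorescence was read (ex 355/em 460 nm).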

The source of these data is patent US20240415819A1, “MACROCYCLIC COMPOUNDS AS PROTEASOME SUBUNIT BETA TYPE-5 INHIBITORS” (Lead Discovery Center GmbH, priority 2021, published 2024).

Molecules are shown by their SMILES.

`Cc1ccc2cc1CNC(=O)[C@H](CCc1ccccc1)NC(=O)[C@@H](NC(=O)CCN1CCC3(CCC3)CC1)CC(=O)N1CCCC(CCO2)C1` (stereo partly drawn) [Compound 638, N-((9S,12S)-5^4-methyl-8,11,14-trioxo-9-phenethyl-4-oxa-7,10-diaza-1(3,1)-piperidina-5(1,3)-benzenacyclotetradecaphane-12-yl)-3-(7-azaspiro[3.5]nonan-7-yl)propanamide]: the IC50 in test [1], in test [2], in test [3], in test [4], in test [5] and in test [6] was less than 100 nM throughout.

As for `Cc1ccc2cc1CNC(=O)[C@H](CCc1ccccc1)NC(=O)[C@@H](NC(=O)N1CCC(C)(O)CC1)CC(=O)N1CCCC(CCO2)C1` (stereo partly drawn) [Compound 676, 4-hydroxy-4-methyl-N-((9S,12S)-5^4-methyl-8,11,14-trioxo-9-phenethyl-4-oxa-7,10-diaza-1(3,1)-piperidina-5(1,3)-benzenacyclotetradecaphane-12-yl)piperidine-1-carboxamide], the IC50 in test [1], in test [2], in test [3], in test [4], in test [5] and in test [6] was less than 100 nM in each case.

In the case of `Cc1ccc2cc1CNC(=O)[C@H](CCc1ccccc1)NC(=O)[C@@H](NC(=O)C1CC3CCC(C1)N3C)CC(=O)N1CCCC(CCO2)C1` (stereo partly drawn) [Compound 713, 8-methyl-N-((9S,12S)-5^4-methyl-8,11,14-trioxo-9-phenethyl-4-oxa-7,10-diaza-1(3,1)-piperidina-5(1,3)-benzenacyclotetradecaphane-12-yl)-8-azabicyclo[3.2.1]octane-3-carboxamide], the IC50 in test [1] was less than 100 nM; in test [2], less than 100 nM; in test [3] it was 100 to 500 nM; in test [4], less than 100 nM; in test [5], less than 100 nM; in test [6], less than 100 nM.

On to `Cc1ccc2cc1CNC(=O)[C@H](CCc1ccccc1)NC(=O)[C@@H](NC(=O)Cc1ccc(N)cc1C)CCCC(=O)NCCCCO2` [Compound 718, 2-(4-amino-2-methylphenyl)-N-((12S,15S)-1^4-methyl-8,13,16-trioxo-15-phenethyl-2-oxa-7,14,17-triaza-1(1,3)-benzenacyclooctadecaphane-12-yl)acetamide], for which the IC50 is less than 100 nM in test [1]; less than 100 nM in test [2]; 100 to 500 nM in test [3]; less than 100 nM in test [4]; 100 to 500 nM in test [5]; less than 100 nM in test [6].

As for `Cc1ccc2cc1CNC(=O)[C@H](CCc1ccccc1)NC(=O)[C@@H](NC(=O)N1CCNCC1)CC(=O)N1CCCC(CCO2)C1` (stereo partly drawn) [Compound 716, N-((9S,12S)-5^4-methyl-8,11,14-trioxo-9-phenethyl-4-oxa-7,10-diaza-1(3,1)-piperidina-5(1,3)-benzenacyclotetradecaphane-12-yl)piperazine-1-carboxamide], the IC50 is less than 100 nM in test [1]; less than 100 nM in test [2]; 100 to 500 nM in test [3]; less than 100 nM in test [4]; less than 100 nM in test [5]; less than 100 nM in test [6].

In the case of `Cc1ccc2cc1CNC(=O)[C@H](CCc1ccccc1)NC(=O)[C@@H](NC(=O)C(F)(F)CN)CC(=O)N1CCCC(CCO2)C1` (stereo partly drawn) [Compound 598, 3-amino-2,2-difluoro-N-((9S,12S)-5^4-methyl-8,11,14-trioxo-9-phenethyl-4-oxa-7,10-diaza-1(3,1)-piperidina-5(1,3)-benzenacyclotetradecaphane-12-yl)propanamide], the IC50 in test [1], in test [2], in test [3], in test [4], in test [5] and in test [6] was less than 100 nM each time.

For the compound `CCN1CCC(F)(C(=O)N[C@H]2CC(=O)N3CCCC(CCOc4ccc(C)c(c4)CNC(=O)[C@H](CCc4ccccc4)NC2=O)C3)CC1` (stereo partly drawn) [Compound 592, 1-ethyl-4-fluoro-N-((9S,12S)-5^4-methyl-8,11,14-trioxo-9-phenethyl-4-oxa-7,10-diaza-1(3,1)-piperidina-5(1,3)-benzenacyclotetradecaphane-12-yl)piperidine-4-carboxamide], the IC50 in test [1], in test [2], in test [3], in test [4], in test [5] and in test [6] was less than 100 nM each time.

Regarding `Cc1ccc2cc1CNC(=O)[C@H](CCc1ccncc1)NC(=O)[C@@H](NC(=O)Cc1ccc(N)cc1C)CC(=O)N1CCCC(CCO2)C1` (stereo partly drawn) [Compound 654, 2-(4-amino-2-methylphenyl)-N-((9S,12S)-5^4-methyl-8,11,14-trioxo-9-(2-(pyridin-4-yl)ethyl)-4-oxa-7,10-diaza-1(3,1)-piperidina-5(1,3)-benzenacyclotetradecaphane-12-yl)acetamide], the IC50 in test [1], in test [2], in test [3], in test [4], in test [5] and in test [6] was less than 100 nM each time.

Consider `Cc1ccc2cc1CNC(=O)[C@H](CCc1ccccc1)NC(=O)[C@@H](NC(=O)CCOCC1CC3CCC1C3)CC(=O)N1CCCC(CCO2)C1` (stereo partly drawn) [Compound 614, 3-(bicyclo[2.2.1]heptan-2-ylmethoxy)-N-((9S,12S)-5^4-methyl-8,11,14-trioxo-9-phenethyl-4-oxa-7,10-diaza-1(3,1)-piperidina-5(1,3)-benzenacyclotetradecaphane-12-yl)propanamide], for which the IC50 in test [1], in test [2], in test [3], in test [4], in test [5] and in test [6] was less than 100 nM in each case.

`Cc1ccc2cc1CNC(=O)[C@H](CCc1ccccc1)NC(=O)[C@@H](NC(=O)CCN1CCC3(CCCC3)CC1)CC(=O)N1CCCC(CCO2)C1` (stereo partly drawn) [Compound 613, N-((9S,12S)-5^4-methyl-8,11,14-trioxo-9-phenethyl-4-oxa-7,10-diaza-1(3,1)-piperidina-5(1,3)-benzenacyclotetradecaphane-12-yl)-3-(8-azaspiro[4.5]decan-8-yl)propanamide]: the IC50 in test [1], in test [2], in test [3], in test [4], in test [5] and in test [6] was less than 100 nM throughout.

In the case of `Cc1ccc2cc1CNC(=O)[C@H](CCc1ccccc1)NC(=O)[C@@H](NC(=O)CCNCC1CCCC1)CC(=O)N1CCCC(CCO2)C1` (stereo partly drawn) [Compound 677, 3-((cyclopentylmethyl)amino)-N-((9S,12S)-5^4-methyl-8,11,14-trioxo-9-phenethyl-4-oxa-7,10-diaza-1(3,1)-piperidina-5(1,3)-benzenacyclotetradecaphane-12-yl)propanamide], the IC50 was less than 100 nM in test [1]; less than 100 nM in test [2]; less than 100 nM in test [3]; 100 to 500 nM in test [4]; less than 100 nM in test [5]; less than 100 nM in test [6].
